Experiment [1] has as its system 293-VnR cells transfected with ADAM12Δcyt. In words: In situ solid-phase gelatinase assay, 293-VnR cells transfected with ADAM12Δcyt. It is filed as cell-based, human. As to conditions: 10 μM overnight vs vehicle only. As to the method:
Data are expressed as the mean gelatin degradation (±s.d.) relative to the mean ADAM12Δcyt degradation value (set at 100%). (B) In situ solid-phase gelatinase assay of 293-VnR cells transfected with ADAM12Δcyt or control vector and treated with GM6001 (10 μM), TAPI-2 (10 μM), or vehicle only (control) overnight. Cells were stained for ADAM12 and for the nucleus (DAPI). The mean number of gelatin-degrading ADAM12-positive cells (±s.d.) is presented as a percentage of the total number of ADAM12-positive cells. (C) In situ solid-phase gelatinase assay of 293-VnR cells cotransfected with ADAM12Δcyt and control or MMP-14 siRNA. Mean data (±s.d.) are expressed relative to the mean siRNA control degradation value (set at 100%). Inset, Western blots of total cell lysates analyzed for MMP-14. […] Gelatin degradation was quantified by measuring the degraded area in μm^2 and correlated to the number of cells. […]
(A) In situ solid-phase gelatinase assay of HEK293 cells transfected with ADAM12Δcyt and immunostained for ADAM12, and DAPI staining. […] Precipitates and input samples were analysed by Western blotting with indicated antibodies. […] (E) Mean percentage cell-surface staining of αVβ3 integrin (LM609 antibody staining) for MCF7, MCF7-A12Δcyt, MCF7-A12Δcyt+dox, and MDA-MB-231 cell lines analyzed by FACS. […]

Another experiment deals with MDA-MB-231 cells. Briefly: Apoptosis in 3-D collagen cultures, MDA-MB-231. It is filed as cell-based, human. The note with it: 10 μg/ml 8F8 or 10 μM GM6001 every second day, compared with control cells. As to the method: (§1) (A) MCF7, MCF7-A12Δcyt, and MCF7-A12Δcyt+dox cell lines were embedded in 3-D collagen and the mean percentage of apoptotic bodies (±s.d.) was determined from >500 cells per experiment. (B) Western blot analysis of ADAM12, MMP-14, BIK, and BIM from cells recovered from 3-D collagen. The bar graph depicts levels of BIK and BIM; determined by quantification of the band intensities (using ImageJ software) and normalized to actin. The MCF7 level was set to 1. (C,D) Mean percentage of apoptotic bodies (±s.d.) from >500 cells of 3-D collagen cultures of MCF7, MCF7-A12Δcyt, and MCF7-A12Δcyt+dox (C) and MDA-MB-231. (D) Cells treated every second day with control mouse IgG, 10 μg/ml 8F8, or 10 μM GM6001. (E) Western blot of cells recovered from 3-D cultures of MDA-MB-231 cells analyzed for MMP-14 after siRNA treatment. […]
(§2) (A) A representative micrograph of MCF7-A12Δcyt+dox cells extracted from 3-D cultures and stained with DAPI. Apoptosis was evaluated by counting the percentage of the number of cells with chromatin condensation and nuclear fragmentation (arrow=apoptotic bodies). […]
(§3) Cells were seeded on dishes coated with gelatin (10 μg/ml) coupled to Oregon Green® 488 dye (G-13186) from Molecular Probes (Life Technologies, Naerum, Denmark). […] For each experiment more than 1000 cells were counted and same type of experiment was repeated independently at least three times. […]

The test system of another experiment is MCF7-A12Δcyt cells. In words: Type I collagen-induced apoptosis in 3-D collagen cultures, MCF7-A12Δcyt. It is filed as cell-based, human. As to conditions: 10 μM GM6001 every second day. The procedure:
as §1, §2, §3

A further experiment concerns wild-type MCF7 cells. In words: Type I collagen-induced apoptosis in 3-D collagen cultures, wild-type MCF7. It is filed as cell-based, human. The note with it: 10 μg/ml 8F8 or 10 μM GM6001 every second day. As to the method: as §1, §2, §3
Another experiment concerns MCF7-A12Δcyt+dox cells. In words: Type I collagen-induced apoptosis in 3-D collagen cultures, MCF7-A12Δcyt+dox. It is filed as cell-based, human. The note with it: 10 μg/ml 8F8 or 10 μM GM6001 every second day. The procedure: as §1, §2, §3
For the next experiment, the target named is αVβ3 integrin (UniProt P06756). In words: cell-based or functional assay.
Sequence of UniProt P06756 (P06756 31-1048, chain 1 of 2): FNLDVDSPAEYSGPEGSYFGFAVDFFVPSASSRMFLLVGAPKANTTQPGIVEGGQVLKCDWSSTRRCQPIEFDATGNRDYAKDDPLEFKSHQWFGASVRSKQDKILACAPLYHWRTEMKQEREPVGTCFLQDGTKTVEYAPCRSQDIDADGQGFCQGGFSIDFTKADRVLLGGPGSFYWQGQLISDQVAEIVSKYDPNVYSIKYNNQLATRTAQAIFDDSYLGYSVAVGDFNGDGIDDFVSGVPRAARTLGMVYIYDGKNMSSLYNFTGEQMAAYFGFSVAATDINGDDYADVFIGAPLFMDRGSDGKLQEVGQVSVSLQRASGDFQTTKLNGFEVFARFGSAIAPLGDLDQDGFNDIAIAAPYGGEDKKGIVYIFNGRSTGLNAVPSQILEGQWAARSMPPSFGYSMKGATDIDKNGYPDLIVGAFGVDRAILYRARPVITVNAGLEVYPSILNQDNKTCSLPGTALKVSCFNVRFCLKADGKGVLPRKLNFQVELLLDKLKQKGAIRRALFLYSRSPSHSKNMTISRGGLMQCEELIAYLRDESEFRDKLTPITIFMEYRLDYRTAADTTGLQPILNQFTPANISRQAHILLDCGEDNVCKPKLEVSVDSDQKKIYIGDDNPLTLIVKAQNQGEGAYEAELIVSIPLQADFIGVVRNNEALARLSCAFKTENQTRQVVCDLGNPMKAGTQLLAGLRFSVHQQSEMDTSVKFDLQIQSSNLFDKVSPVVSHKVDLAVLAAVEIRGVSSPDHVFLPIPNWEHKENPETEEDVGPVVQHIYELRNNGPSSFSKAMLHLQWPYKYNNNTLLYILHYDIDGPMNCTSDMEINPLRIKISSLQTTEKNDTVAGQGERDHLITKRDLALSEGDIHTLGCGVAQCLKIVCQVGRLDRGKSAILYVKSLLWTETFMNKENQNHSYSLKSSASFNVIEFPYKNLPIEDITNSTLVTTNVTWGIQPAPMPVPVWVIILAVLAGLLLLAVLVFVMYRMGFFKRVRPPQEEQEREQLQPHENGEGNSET
Sequence of UniProt P06756 (P05106 27-788, chain 2 of 2, further chain): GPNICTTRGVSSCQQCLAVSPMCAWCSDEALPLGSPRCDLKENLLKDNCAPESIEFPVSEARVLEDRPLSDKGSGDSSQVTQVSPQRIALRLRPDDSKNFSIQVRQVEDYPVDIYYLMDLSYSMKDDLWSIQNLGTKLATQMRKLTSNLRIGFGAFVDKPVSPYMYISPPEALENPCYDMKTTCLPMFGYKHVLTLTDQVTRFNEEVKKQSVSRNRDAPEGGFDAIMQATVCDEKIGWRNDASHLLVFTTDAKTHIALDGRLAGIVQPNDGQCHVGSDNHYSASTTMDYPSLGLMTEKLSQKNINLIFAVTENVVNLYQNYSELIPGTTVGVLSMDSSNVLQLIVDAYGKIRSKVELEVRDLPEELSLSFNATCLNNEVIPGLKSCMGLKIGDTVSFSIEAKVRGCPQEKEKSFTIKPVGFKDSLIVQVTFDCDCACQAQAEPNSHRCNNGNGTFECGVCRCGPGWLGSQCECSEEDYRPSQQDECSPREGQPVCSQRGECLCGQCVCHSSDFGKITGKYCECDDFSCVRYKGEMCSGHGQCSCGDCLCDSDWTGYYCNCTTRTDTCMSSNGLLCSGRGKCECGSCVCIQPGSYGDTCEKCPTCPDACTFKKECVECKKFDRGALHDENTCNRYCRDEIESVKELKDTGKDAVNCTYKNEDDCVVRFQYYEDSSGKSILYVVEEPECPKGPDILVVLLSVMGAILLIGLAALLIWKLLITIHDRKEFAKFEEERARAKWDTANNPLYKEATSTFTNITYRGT

For the compound `CNC(=O)[C@H](Cc1c[nH]c2ccccc12)NC(=O)[C@@H](CC(=O)NO)CC(C)C` [GM6001], the gelatin degradation entry in experiment [1] is on record as “significant reduction”. Further, the “levels of apoptotic bodies” value in the experiment with MDA-MB-231 cells is reported as “significantly increased”. In addition, in the experiment with MCF7-A12Δcyt cells, the “fraction of apoptotic bodies” value is given as “significantly increased”. Also, the “effect on apoptosis (apoptotic bodies, ApopTag)” value with wild-type MCF7 cells and in the experiment with MCF7-A12Δcyt+dox cells was “no effects” each time.
For the compound `CC(C)C[C@H](CC(=O)NO)C(=O)N[C@H](C(=O)N[C@@H](C)C(=O)NCCN)C(C)(C)C` [TAPI-2], the gelatin degradation result in experiment [1] is “significant reduction”.
Turning to “mouse monoclonal antibody LM609 against αVβ3 integrin (Chemicon/Millipore)”, in the experiment with αVβ3 integrin, the reduction of gelatin degradation in MCF7-A12Δcyt cell cultures was 80%.

(Values after US20160208016A1, “Anti-ADAM12 antibodies for the treatment of cancer” (UNIVERSITY OF COPENHAGEN, priority 2013, published 2016).)
